ChEMBL document CHEMBL3046800, “Tricyclic cyanoguanidines: synthesis, site of action and insecticidal activity of a novel class of reversible acetylcholinesterase inhibitors” (2002)
Active and inactive are the calls of the source. The rule behind the calls is not given here.

Experiments:
[1] = tested on: Nilaparvata lugens; experiment: Insecticidal activity against Nilaparvata lugens (brown planthopper) infested in compound-pretreated rice seedling measured 6 days post-infestation; type: functional
[2] = tested on: Peregrinus maidis; experiment: Insecticidal activity against Peregrinus maidis (corn hopper) infested compound-pretreated corn seed measured 6 days post-infestation; type: functional
[3] = tested on: Nephotettix cincticeps; experiment: Insecticidal activity against Nephotettix cincticeps (green rice leafhopper) infested in compound-pretreated rice seedling measured 6 days post-infestation; type: functional
[4] = molecular target: Acetylcholinesterase (Leptinotarsa decemlineata) (UniProt Q27677); experiment: Inhibition of Diabrotica undecimpunctata (Southern corn rootworm) acetylcholinesterase using acetylcholine iodine as substrate at 300 nM measured after 30 min by DTNB-based colorimetric analysis
[5] = molecular target: Acetylcholinesterase (Leptinotarsa decemlineata) (UniProt Q27677); experiment: Irreversible inhibition of Diabrotica undecimpunctata (Southern corn rootworm) acetylcholinesterase using acetylcholine iodine as substrate assessed as activity remaining at 1 uM incubated for 30 min prior to substrate addition by size exclusion chromatrography method
[6] = molecular target: Acetylcholinesterase (Leptinotarsa decemlineata) (UniProt Q27677); experiment: Irreversible inhibition of Diabrotica undecimpunctata (Southern corn rootworm) acetylcholinesterase using acetylcholine iodine as substrate at 300 nM measured after 120 min by DTNB-based colorimetric analysis
[7] = molecular target: Acetylcholinesterase (Leptinotarsa decemlineata) (UniProt Q27677); experiment: Reversible inhibition of Diabrotica undecimpunctata (Southern corn rootworm) acetylcholinesterase using acetylcholine iodine as substrate at 2 uM measured up to 120 min by DTNB-based colorimetric analysis
[8] = molecular target: Acetylcholinesterase (Leptinotarsa decemlineata) (UniProt Q27677); experiment: Reversible inhibition of Diabrotica undecimpunctata (Southern corn rootworm) acetylcholinesterase using acetylcholine iodine as substrate at 10 uM incubated for 30 min prior to substrate addition by size exclusion chromatrography method
[9] = molecular target: Ace-orthologous acetylcholinesterase (Nephotettix cincticeps) (UniProt Q9NJH6); experiment: Reversible inhibition of Nephotettix cincticeps (green rice leafhopper) acetylcholinesterase using acetylcholine iodine as substrate at 2 uM measured up to 120 min by DTNB-based colorimetric analysis
Chain of Ace-orthologous acetylcholinesterase (Nephotettix cincticeps) (Q9NJH6 20-677 limits assumed): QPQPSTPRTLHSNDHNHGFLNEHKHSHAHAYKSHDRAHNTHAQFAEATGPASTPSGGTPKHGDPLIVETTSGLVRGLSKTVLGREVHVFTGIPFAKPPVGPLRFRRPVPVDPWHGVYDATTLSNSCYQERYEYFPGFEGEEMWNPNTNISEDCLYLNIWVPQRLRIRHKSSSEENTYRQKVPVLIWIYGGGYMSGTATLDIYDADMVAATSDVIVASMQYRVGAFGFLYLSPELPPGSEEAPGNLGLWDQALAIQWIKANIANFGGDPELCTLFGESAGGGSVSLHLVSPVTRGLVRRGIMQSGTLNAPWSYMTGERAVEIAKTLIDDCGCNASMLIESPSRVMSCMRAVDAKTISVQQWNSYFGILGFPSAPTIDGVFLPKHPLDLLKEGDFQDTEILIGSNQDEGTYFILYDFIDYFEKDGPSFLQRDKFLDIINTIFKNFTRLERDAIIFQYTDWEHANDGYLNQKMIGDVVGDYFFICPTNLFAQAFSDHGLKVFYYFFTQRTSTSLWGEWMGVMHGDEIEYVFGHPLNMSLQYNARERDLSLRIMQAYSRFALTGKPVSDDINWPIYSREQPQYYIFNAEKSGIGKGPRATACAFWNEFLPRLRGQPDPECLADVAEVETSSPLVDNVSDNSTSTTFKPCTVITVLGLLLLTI

Chain of Acetylcholinesterase (Leptinotarsa decemlineata) (Q27677 whole entry): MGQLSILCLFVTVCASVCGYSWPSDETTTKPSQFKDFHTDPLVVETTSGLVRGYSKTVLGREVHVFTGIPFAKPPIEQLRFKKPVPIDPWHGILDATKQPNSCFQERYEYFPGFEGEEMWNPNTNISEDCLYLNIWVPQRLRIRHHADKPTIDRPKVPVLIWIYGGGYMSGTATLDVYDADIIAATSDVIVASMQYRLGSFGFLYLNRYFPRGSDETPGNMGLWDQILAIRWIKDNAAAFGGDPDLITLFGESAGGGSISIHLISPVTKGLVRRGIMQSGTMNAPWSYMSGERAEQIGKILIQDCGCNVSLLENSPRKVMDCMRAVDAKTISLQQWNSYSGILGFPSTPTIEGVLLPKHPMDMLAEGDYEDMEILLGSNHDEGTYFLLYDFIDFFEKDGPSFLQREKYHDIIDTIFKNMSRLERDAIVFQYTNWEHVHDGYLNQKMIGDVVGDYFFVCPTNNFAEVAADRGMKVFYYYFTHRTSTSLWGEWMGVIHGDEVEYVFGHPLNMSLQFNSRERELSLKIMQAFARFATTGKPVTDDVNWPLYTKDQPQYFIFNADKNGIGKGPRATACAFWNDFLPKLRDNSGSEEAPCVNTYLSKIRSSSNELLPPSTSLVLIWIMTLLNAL

Row | SMILES | LC80 [1] [ppm] | LC80 [2] [ppm] | LC80 [3] [ppm] | also measured
1 | N#C/N=C1/NC2CC(c3ccccc3)(N1)Oc1ccccc12 (centres undefined) | >100 | <50 | <10 | 
2 | N#C/N=C1\NC2Cc3ccccc3C(C2)N1 (centres undefined) | <100 | <2.5 | <10 | 
3 | CC12CC(N/C(=N/C#N)N1)c1cc(Cl)cc(Cl)c1O2 (centres undefined) | >100 | >250 | >100 | 
4 | CCC12N/C(=N\C#N)NC(c3ccccc3O1)C2C (mixture of isomers) | >100 | >250 | >100 | 
5 | Cc1ccc2c(c1)C1CC(C)(N/C(=N\C#N)N1)O2 (centres undefined) | >100 | >250 | <100 | 
6 | CC(=O)N1/C(=N\C#N)NC2CC1Cc1ccccc12 (centres undefined) | >100 | <10 |  | 
7 | CC12CC(c3ccccc3O1)N(C[Si](C)(C)C)/C(=N/C#N)N2 (centres undefined) | <100 | >250 | >100 | 
8 | CN1/C(=N/C#N)NC2(C)CC1c1ccccc1O2 (centres undefined) | <10 | >250 | <100 | 
9 | CCC(=O)N1/C(=N/C#N)NC2(C)CC1c1ccccc1O2 (centres undefined) | <10 | <250 | <100 | 
10 | COc1cccc2c1C1CC(C)(N/C(=N\C#N)N1)O2 (centres undefined) | >100 | <50 | >100 | 
11 | CC(C)C(=O)N1/C(=N/C#N)NC2(C)CC1c1ccccc1O2 (centres undefined) | <10 | >250 | >100 | 
12 | Cc1cccc2c1OC1(C)CC2N/C(=N/C#N)N1 (centres undefined) | >100 | >250 | >100 | 
13 | CC(=O)N1/C(=N/C#N)NC2Cc3ccccc3C1C2 (centres undefined) |  | >250 | <10 | 
14 | CC12CC(N/C(=N/C#N)N1)c1cccc(F)c1O2 (centres undefined) | >100 | >250 | >100 | 
15 | N#C/N=C1\NC2CC(N1)c1ccccc1O2 (centres undefined) | <100 | <50 | >100 | 
16 | CCC1C2N/C(=N/C#N)NC1(C)Oc1ccccc12 (centres undefined) | >100 | >250 | <10 | 
17 | CCC1C2N/C(=N\C#N)NC1c1ccccc1O2 (mixture of isomers) | >100 | <250 |  | 
18 | COC(=O)N1/C(=N/C#N)NC2(C)CC1c1ccccc1O2 (centres undefined) | <10 | >250 | <10 | 
19 | CC12CC(c3ccccc3O1)N(C(=O)C(F)(F)F)/C(=N/C#N)N2 (centres undefined) | >100 | <250 | >100 | 
20 | CCC12CC(N/C(=N/C#N)N1)c1ccccc1O2 (centres undefined) | <10 | >250 | >100 | 
21 | CC12CC(N/C(=N/C#N)N1)c1ccc(F)cc1O2 (centres undefined) | <10 | <250 | >100 | 
22 | CC12CC(N/C(=N/C#N)N1)c1cc(Cl)ccc1O2 (centres undefined) | >100 | >250 | >100 | 
23 | CC12CC(c3ccccc3O1)N(Cc1ccccn1)/C(=N/C#N)N2 (centres undefined) | <100 | <50 | >100 | 
24 | C[C@H]1[C@H]2N/C(=N/C#N)N[C@]1(C)Cc1ccccc12 (relative stereo) |  | <2.5 | <1 | 
25 | CC12CC(c3ccccc3O1)N(S(C)(=O)=O)/C(=N/C#N)N2 (centres undefined) | >100 | <50 | >100 | 
26 | COC(=O)CN1/C(=N/C#N)NC2(C)CC1c1ccccc1O2 (centres undefined) | <100 | <50 | <100 | 
27 | CC(=O)N1/C(=N/C#N)NC2(C)CC1c1ccccc1O2 (centres undefined) | <10 | <250 | <10 | 

Row | SMILES | LC80 [1] [ppm] | LC80 [2] [ppm] | LC80 [3] [ppm] | also measured
28 | CN1/C(=N/C#N)NC2(C)CC1c1ccc(F)cc1O2 (centres undefined) |  | <10 |  | 
29 | C[C@H]1[C@H]2Cc3ccccc3[C@@H]1N/C(=N/C#N)N2 (relative stereo) | <10 | <250 |  | 
30 | CC12CC(N/C(=N/C#N)N1)c1cc(OC(F)(F)F)ccc1O2 (centres undefined) | >100 | >250 | >100 | 
31 | C[C@@H]1[C@H]2N/C(=N/C#N)N[C@]1(C)Cc1ccccc12 (relative stereo) | <1 | <10 |  | 
32 | COc1ccc2c(c1OC)OC1(C)CC2N/C(=N/C#N)N1 (centres undefined) | >100 | <250 | >100 | 
33 | CC12CC(N/C(=N/C#N)N1)c1cc(N)ccc1O2 (centres undefined) | >100 | >250 | <10 | 
34 | C[C@@H]1[C@H]2N/C(=N/C#N)N[C@]1(C)Oc1ccccc12 (relative stereo) | <1 | <50 | >100 | 
35 | CN1/C(=N/C#N)N(C)C2(C)CC1c1ccccc1O2 (centres undefined) | <10 | >250 | >100 | 
36 | CC12CC(c3ccccc3O1)N(Cc1ccccc1)/C(=N/C#N)N2 (centres undefined) | >100 | >250 | <100 | 
37 | CC(=O)N1/C(=N/C#N)NC2(C)CC1c1ccc(F)cc1O2 (centres undefined) | >100 | >250 | >100 | 
38 | CC12CC(N/C(=N/C#N)N1)c1cc(C(C)(C)C)cc(C(C)(C)C)c1O2 (centres undefined) | >100 | >250 | >100 | 
39 | C=CCN1/C(=N/C#N)NC2(C)CC1c1ccccc1O2 (centres undefined) | <100 | >250 | >100 | 
40 | CCN1/C(=N/C#N)NC2(C)CC1c1ccccc1O2 (centres undefined) | <10 | >250 | >100 | 
41 | CC12CC(N/C(=N/C#N)N1)c1c(Cl)cc(Cl)cc1O2 (centres undefined) | >100 | <250 | <10 | 
42 | CC12CC(N/C(=N/C#N)N1)c1ccc(Cl)cc1O2 (centres undefined) | <100 | <50 | >100 | 
43 | C[C@H]1[C@H]2N/C(=N/C#N)N[C@]1(C)Oc1ccccc12 (relative stereo) | <100 | >250 | <1 | 
44 | CCOP(=O)(OCC)Oc1ccc([N+](=O)[O-])cc1 [PARAOXON] | <10 |  | >100 | inhibition [4]: 50%; Activity [5]: < 20%; inhibition [6]: 100%
45 | CC12CC(N/C(=N/C#N)N1)c1cc([N+](=O)[O-])ccc1O2 (centres undefined) | >100 | <250 | <10 | 
46 | C[C@@H]1[C@H]2Cc3ccccc3[C@@H]1N/C(=N/C#N)N2 (relative stereo) | <100 | <250 | <0.1 | 
47 | CC12CC(N/C(=N/C#N)N1)c1ccccc1O2 (centres undefined) | <10 | >250 | >100 | inhibition [7]: 50%; inhibition [8]: Active; inhibition [9]: inactive
48 | C#CCN1/C(=N/C#N)NC2(C)CC1c1ccccc1O2 (centres undefined) | <10 | >250 | <10 | 
49 | COC(=O)N1/C(=N/C#N)NC2(C)CC1c1ccc(F)cc1O2 (centres undefined) |  | <250 | <10 | 
50 | CC1c2ccccc2C2CC1N/C(=N\C#N)N2 (centres undefined) |  | <2.5 | <10 | 
51 | CCCC(=O)N1/C(=N/C#N)NC2(C)CC1c1ccccc1O2 (centres undefined) | <10 | >250 | <100 | 
52 | CC1C2N/C(=N\C#N)NC1c1ccccc1O2 (mixture of isomers) | <100 | >250 | >100 | 
53 | CC12CC(N/C(=N/C#N)N1)c1cc(Br)cc(Br)c1O2 (centres undefined) | >100 | <10 | >100 | 
